Data taken from paper PMC1241434 (Environmental Health Perspectives, 2003).

Assays:
[1] = biological target: T1, human estrogen receptor-alpha (hER alpha) (Homo sapiens, UniProt P03372); test: hER alpha reporter gene assay in CHO cells, antagonist mode; conditions: 10^-5 M, presence of 10-11 M E2, versus vehicle
T1 sequence (P03372 1-595): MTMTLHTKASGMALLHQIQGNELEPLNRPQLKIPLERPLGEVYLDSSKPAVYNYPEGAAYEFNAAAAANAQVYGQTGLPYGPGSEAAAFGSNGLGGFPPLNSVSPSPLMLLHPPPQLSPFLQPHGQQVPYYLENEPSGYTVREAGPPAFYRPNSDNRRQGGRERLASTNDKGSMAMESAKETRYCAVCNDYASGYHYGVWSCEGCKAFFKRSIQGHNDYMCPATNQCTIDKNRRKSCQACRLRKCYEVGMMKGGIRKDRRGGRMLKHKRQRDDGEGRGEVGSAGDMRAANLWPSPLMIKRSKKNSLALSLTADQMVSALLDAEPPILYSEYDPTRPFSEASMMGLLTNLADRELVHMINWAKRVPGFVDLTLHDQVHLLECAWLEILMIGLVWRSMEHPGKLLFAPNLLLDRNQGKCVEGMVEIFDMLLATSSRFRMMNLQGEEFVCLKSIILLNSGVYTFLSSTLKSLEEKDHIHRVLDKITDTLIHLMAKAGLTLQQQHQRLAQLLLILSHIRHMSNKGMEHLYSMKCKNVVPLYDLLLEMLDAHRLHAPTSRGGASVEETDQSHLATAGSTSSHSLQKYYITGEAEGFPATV

CHO-K1 cells = test: Renilla luciferase activity as toxicity control in transfected CHO cells; conditions: conditions of the hAR antagonist assay, data not shown
[2] = biological target: T2, human androgen receptor (hAR) (Homo sapiens, UniProt P10275); test: hAR reporter gene assay in CHO cells, agonist mode; conditions: for hAR-mediated transcriptional activity (androgenicity): 10^-5 M, absence of DHT
T2 sequence (P10275 1-920): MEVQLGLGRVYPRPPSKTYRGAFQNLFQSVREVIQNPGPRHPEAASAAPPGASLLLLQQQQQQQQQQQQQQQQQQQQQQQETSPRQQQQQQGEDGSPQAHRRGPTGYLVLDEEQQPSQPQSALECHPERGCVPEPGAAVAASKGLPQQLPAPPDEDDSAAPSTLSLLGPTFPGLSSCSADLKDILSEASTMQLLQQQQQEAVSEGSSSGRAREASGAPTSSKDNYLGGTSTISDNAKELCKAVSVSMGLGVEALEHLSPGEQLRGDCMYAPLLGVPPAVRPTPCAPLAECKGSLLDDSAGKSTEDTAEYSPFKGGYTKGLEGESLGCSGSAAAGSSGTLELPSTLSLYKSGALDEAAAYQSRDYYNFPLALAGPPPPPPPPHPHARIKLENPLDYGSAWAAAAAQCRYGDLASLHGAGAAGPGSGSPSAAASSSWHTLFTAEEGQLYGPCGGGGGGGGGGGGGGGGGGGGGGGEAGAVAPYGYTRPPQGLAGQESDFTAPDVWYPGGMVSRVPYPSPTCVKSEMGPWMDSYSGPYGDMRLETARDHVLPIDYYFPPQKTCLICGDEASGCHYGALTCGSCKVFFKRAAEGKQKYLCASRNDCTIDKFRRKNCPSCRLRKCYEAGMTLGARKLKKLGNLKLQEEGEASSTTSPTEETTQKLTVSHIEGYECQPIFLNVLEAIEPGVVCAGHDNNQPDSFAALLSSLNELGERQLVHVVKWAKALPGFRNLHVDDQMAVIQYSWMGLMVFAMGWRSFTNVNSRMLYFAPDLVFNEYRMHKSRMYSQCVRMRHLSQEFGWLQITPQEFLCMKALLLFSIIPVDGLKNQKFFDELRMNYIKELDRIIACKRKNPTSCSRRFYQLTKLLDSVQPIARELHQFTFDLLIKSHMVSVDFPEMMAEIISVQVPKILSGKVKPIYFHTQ

human AR = biological target: T3, human AR (Homo sapiens, UniProt P10275); test: Competitive binding assay for AR; conditions: ratio of IC50 of mibolerone to that of test compound, mibolerone set at 100
T3 sequence (P10275 1-920): T2 sequence (P10275 1-920)

human ER = biological target: T4, human ER (Homo sapiens, UniProt P03372); test: Competitive binding assay for ER; conditions: for RBA-E (relative binding affinity for hER): ratio of IC50 of DES to that of test compound, DES set at 100
T4 sequence (P03372 1-595): T1 sequence (P03372 1-595)

estrogenic activity = conditions: 10^-5 M; ref Nishikawa et al. (2000); cited from earlier work
[3] = biological target: T1, human estrogen receptor-alpha (hER alpha); test: hER alpha reporter gene assay in CHO cells, agonist mode; conditions: for hER-mediated transcriptional activity (estrogenic activity): 10^-5 M, absence of E2; for estrogenic activity of steroids: at the concentrations tested
[4] = biological target: T2, human androgen receptor (hAR); test: hAR reporter gene assay in CHO cells, antagonist mode; conditions: for inhibition of hAR-mediated transcriptional activity by DHT: 10^-5 M, presence of 10^-10 M DHT

Row | Structure (SMILES) | effect on estrogenic activity of E2 (antiestrogenic activity) [1] | effect on cellular viability (Renilla luciferase activity) (CHO-K1 cells) | hAR-mediated transcriptional activity (androgenicity) [2] | RBA-A (relative binding affinity for hAR) (human AR) | RBA-E (relative binding affinity for hER) (human ER) | hER-mediated transcriptional activity (estrogenic activity) [3] | inhibition of hAR-mediated transcriptional activity by DHT [4] | estrogenic activity of steroids [3] | further results
1 | O=[N+]([O-])c1ccc(Oc2c(Cl)cc(Cl)cc2Cl)cc1 [CNP, 2,4,6-trichlorophenyl-4-nitrophenyl ether] | did not show any significant differences | did not affect the cellular viability | weakly androgenic | 8.64 | < 0.0009 | potent estrogenic activity | inhibited | – | effect on the binding of E2 to hER (human ER): very low; estrogenic activity in yeast two-hybrid assay (estrogenic activity): negative; antiandrogenic potency, fold higher than o,p-DDT ([4]; IC50 ratio versus o,p-DDT): ~10 fold; antiandrogenic potency, fold higher than p,p-DDE ([4]; IC50 ratio versus p,p-DDE): ~14 fold; antiandrogenic potency, fold higher than vinclozolin ([4]; IC50 ratio versus vinclozolin): approximately 3.5 fold
2 | Nc1ccc(Oc2c(Cl)cc(Cl)cc2Cl)cc1 [CNP-amino, 2,4,6-trichlorophenyl-4-aminophenyl ether] | did not show any significant differences | did not affect the cellular viability | no androgenicity | 0.33 | 0.036 | potent estrogenic activity | inhibited | – | estrogenic activity, fold higher than p,p-DDT ([3]; versus p,p-DDT): about 4 fold; antiandrogen intensity relative to CNP ([4]; ratio to CNP): more than 1/10
3 | C[C@]12CC[C@@H]3c4ccc(O)cc4CC[C@H]3[C@@H]1CCC2=O [estrone, reference compound] | – | – | – | – | – | – | – | – | androgenic activity of steroids ([2]; at the concentrations tested): only low activity
4 | Clc1ccc(C(c2ccccc2Cl)C(Cl)(Cl)Cl)cc1 (centres unmarked) [o,p-DDT, 1,1,1-trichloro-2-(p-chlorophenyl)-2-(o-chlorophenyl)ethane, reference compound] | did not show any significant differences | – | – | – | – | potent estrogenic activity | – | – | –
5 | CC(=O)[C@H]1CC[C@H]2[C@@H]3CCC4=CC(=O)CC[C@]4(C)[C@H]3CC[C@]12C [progesterone, reference compound] | – | – | – | – | – | – | – | inactive | –
6 | C[C@]12CC[C@H]3[C@@H](CCC4=CC(=O)CC[C@@]43C)[C@@H]1CC[C@@H]2O [testosterone, reference compound] | – | – | – | – | – | – | – | positive by this assay at high concentrations | –
